Reference: patent publication US12428406B2 (PMV Pharmaceuticals, Inc., priority 2019, dated 2025)

These molecules were tested against T1, p53 Y220C (Homo sapiens, UniProt P04637, Y220C) (assay: In vitro DNA binding activity assay (HTRF / TR-FRET): stabilization of p53 Y220C and increase of its DNA binding activity). Settings: recombinant His-tagged p53 Y220C DNA binding domain (aa 94-312), biotin-labeled consensus DNA, incubated at 27° C. or 29° C. for 60 min.
T1 construct: The recombinant protein was a truncation mutant containing only amino acids 94-312 of p53; made in house; host or cells: E. coli
T1 sequence (P04637 94-312, change not shown): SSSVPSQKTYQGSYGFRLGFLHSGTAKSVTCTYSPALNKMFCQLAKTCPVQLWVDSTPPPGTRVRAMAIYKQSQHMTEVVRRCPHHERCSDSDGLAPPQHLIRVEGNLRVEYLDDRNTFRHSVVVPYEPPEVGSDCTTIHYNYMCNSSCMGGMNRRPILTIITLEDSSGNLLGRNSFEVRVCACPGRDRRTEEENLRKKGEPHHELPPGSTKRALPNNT
Type: biochemical
Summary of the method: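 Homogeneous time-resolved fluorescence with E. coli-derived p53 Y220C and biotinylated consensus DNA. Room-temperature incubations of 15 and 20 min precede reading. SC150 denotes the compound concentration required for 50% increased DNA binding.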

Compound	SC150 (concentration of the compound required to increase the DNA binding activity by 50%)
CNC(=O)c1ccc(NCC#Cc2cc3c(N[C@H]4CC[C@H](N(C)CCOC)CC4)cccc3n2CC(F)(F)F)c(OC)c1 [Compound 151A, 3-methoxy-N-methyl-4-{[3-(4-{[(1R,4R)-4-[(2-methoxyethyl) (methyl)amino]cyclo-hexyl]amino}-1-(2,2,2-trifluoroethyl)-1H-indol-2-yl)prop-2-yn-1-yl]amino}benzamide]	+ (+ = 0 μM ≤ SC150 < 0.05 μM)
COc1cc(S(C)(=O)=O)ccc1NCC#Cc1cc2c(N[C@H]3CCN(C(C)C)C[C@H]3F)cccc2n1CC(F)(F)F [Compound 803A]	+ (+ = 0 μM ≤ SC150 < 0.05 μM)
COc1cc(S(C)(=O)=O)ccc1NCC#Cc1cc2c(NC3CCN(CCCS(C)(=O)=O)CC3)cccc2n1CC(F)(F)F [Compound 706A, 2-{3-[(4-methanesulfonyl-2-methoxyphenyl)amino]prop-1-yn-1-yl}-N-[1-(3-methanesulfonylpropyl)piperidin-4-yl]-1-(2,2,2-trifluoroethyl)-1H-indol-4-amine]	+ (+ = 0 μM ≤ SC150 < 0.05 μM)
COc1cc(C(=O)O)ccc1NCC#Cc1cc2c(N[C@@H]3CCN(C[C@H](C)O)C[C@@H]3F)cccc2n1CC(F)(F)F (single isomer, unassigned) [Compound 921A]	+ (+ = 0 μM ≤ SC150 < 0.05 μM)
CCN1CCC(Nc2cccc3c2cc(C#CCNc2ccc(S(N)(=O)=O)cc2OC)n3CC(F)(F)F)CC1 [Compound 538A, 4-[(3-{4-[(1-ethylpiperidin-4-yl)amino]-1-(2,2,2-trifluoroethyl)-1H-indol-2-yl}prop-2-yn-1-yl)amino]-3-methoxybenzene-1-sulfonamide]	+ (+ = 0 μM ≤ SC150 < 0.05 μM)
COc1cc(S(N)(=O)=O)ccc1NCC#Cc1cc2c(N[C@H]3CC[C@H](N4CC5COCC5C4)CC3)cccc2n1CC(F)(F)F (stereo partly drawn) [Compound 430A, 3-methoxy-4-{[3-(4-{[(1R,4R)-4-{hexahydro-1H-furo[3,4-c]pyrrol-5-yl}cyclohexyl]amino}-1-(2,2,2-trifluoroethyl)-1H-indol-2-yl)prop-2-yn-1-yl]amino}benzene-1-sulfonamide]	+ (+ = 0 μM ≤ SC150 < 0.05 μM)
COc1cc(C(=O)NCC2COC(=O)O2)ccc1NCC#Cc1cc2c(N[C@@H]3CCN(C)C[C@@H]3F)cccc2n1CC(F)(F)F (stereo partly drawn) [Compound 968A, 4-{1[3-(4-{1[(3S,4R)-3-fluoro-1-methylpiperidin-4-yl]amino}-1-(2,2,2-trifluoroethyl)-1H-indol-2-yl)prop-2-yn-1-yl]amino}-3-methoxy-N-[(2-oxo-1,3-dioxolan-4-yl)methyl]benzamide]	+ (+ = 0 μM ≤ SC150 < 0.05 μM)
COCC(O)CN1CCC(Nc2cccc3c2cc(C#CCNc2ccc(S(C)(=O)=O)cc2Cl)n3CC(F)(F)F)CC1 (stereo not drawn) [Compound 713A, 1-{4-[(2-{3-[(2-chloro-4-methanesulfonylphenyl)amino]prop-1-yn-1-yl}-1-(2,2,2-trifluoroethyl)-1H-indol-4-yl)amino]piperidin-1-yl}-3-methoxypropan-2-ol]	+ (+ = 0 μM ≤ SC150 < 0.05 μM)
COCC(O)CN1CCC(Nc2cccc3c2cc(C#CCNc2ccc(S(C)(=O)=O)cc2OC)n3CC2CC2(F)F)CC1 (stereo not drawn) [Compound 704A, 1-[4-({1-[(2,2-difluorocyclopropyl)methyl]-2-{3-[(4-methanesulfonyl-2-methoxyphenyl)amino]prop-1-yn-1-yl}-1H-indol-4-yl}amino)piperidin-1-yl]-3-methoxypropan-2-ol]	++ (++ = 0.05 μM ≤ SC150 < 0.1 μM)
